For ten compounds, TGI and GI50 results are on record in PubChem BioAssay (NCI).

Molecules are shown by their SMILES.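 Where inhibition never reached the appropriate level, the endpoint shown equals the highest concentration tested. Otherwise, values were interpolated linearly from a five-concentration, 48-hour dose response in 96-well plates. GI50 marks 50% less growth. The concentration for full growth arrest is given as TGI.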 A value given as a limit tells only on which side of the number the result lay.

What all share (test): inhibition of tumour cell growth, NCI panel, 48 h
Assay [1] relates to 786-0 renal.
Assay [2] concerns CCRF-CEM leukemia.
Assay [3] has as its system KM12 colon.
In assay [4] the test system is MOLT-4 leukemia.
The test system of assay [5] is OVCAR-3 ovarian.
Assay [6] relates to SF-539 CNS.
The test system of assay [7] is SK-MEL-2 melanoma.
Assay [8] relates to SR leukemia.
Assay [9] has as its system MDA-MB-231 breast.
For assay [10], the system named is PC-3 prostate.

For `CC1(C)CC2CC(CC(C)(C)C2=O)C1=O`, the TGI in assay [1], in assay [2], in [3], in assay [4], in [5] and in [6] was above 100 µM in each case. For the same compound, the TGI in [7] and in [8] was above 100 µM throughout.
For `CCC[CH2][Sn]1([CH2]CCC)[O]C2C(CO)OC(n3ccc(N)nc3=O)C2[O]1` (stereo not given), the GI50 was 1.54 µM in assay [1]; 1680 nM in assay [3]; 0.818 µM in [9]; 1.64 µM in [4]; 1580 nM in assay [5]; 1.66 µM in [10]. In addition, the GI50 was 1410 nM in [6], 964 nM in assay [7] and 549 nM in assay [8]. For the same compound, the TGI in assay [1] is 2.88 µM; in [3] it was 3.13 µM; in assay [9], 2.19 µM; in assay [4], above 100 µM; in assay [5], 2.94 µM; in [10] it was 3.26 µM. For the same compound, the TGI in assay [6] was 2.72 µM; in assay [7], 2.29 µM; in assay [8] it was above 100 µM.
As to `CC(C)(C)c1[nH]nc2c1C(c1cc3ccccc3[nH]c1=O)Nc1cc(C(=O)OCc3ccccc3)ccc1N2` (stereo not given), the GI50 in assay [1] is 3.41 µM; in assay [2], 3.23 µM; in assay [3] it was 2830 nM; in assay [9], 5.91 µM; in assay [4], 3.3 µM; in assay [10], 2.7 µM. The GI50 was 4560 nM in assay [6], 3330 nM in [7] and 3520 nM in [8]. For the same compound, the TGI is above 100 µM in [1]; above 100 µM in [2]; 7.34 µM in assay [3]; above 100 µM in assay [9]; 44.1 µM in [4]; above 100 µM in assay [10]. In addition, the results for the TGI in assay [6], in [7] and in assay [8] were above 100 µM, 7.28 µM and above 100 µM, respectively.
Turning to `COc1cccc(NC(=O)CC(=O)N2N=C(N3c4ccccc4Sc4ccccc43)CC2c2ccccc2)c1` (stereo not given), the TGI in assay [1], in assay [3], in assay [4], in assay [5], in assay [6] and in [8] was above 100 µM throughout.
`CC1=C(C(=O)N(C)c2ccc(Cl)c(C(=O)OC(C)C)c2)SCCO1`: the TGI in [1], in [2], in [3], in [9], in [4] and in assay [5] was above 100 µM each time. In addition, the TGI in assay [10], in assay [6] and in assay [7] was above 100 µM throughout.
Regarding `CN(C)C(=O)c1cnc2oc3ccc(O)cc3c2c1-c1ccccc1`, the GI50 in [1] was above 25 µM; in [3], above 25000 nM; in [4], above 25 µM; in [5], above 25000 nM; in assay [10], 16.6 µM; in assay [7], above 25000 nM. The GI50 in [8] is 3780 nM. The TGI in assay [1], in assay [3], in [4], in assay [5], in assay [10] and in [7] was above 25 µM throughout. Further, the TGI in [8] is above 25 µM.
On to `Nc1ccccc1C#C/C=C\C#Cc1cccc(O)c1`, for which the GI50 in assay [1] was 3.89 µM; in [2], 8.12 µM; in assay [3] it was 2610 nM; in [9], 2.29 µM; in [4] it was 3.21 µM; in assay [5] it was 2730 nM. For the same compound, the results for the GI50 in assay [10], in assay [6] and in assay [8] were 6.5 µM, 2500 nM and 1550 nM, respectively. Moreover, the TGI in [1] was 15.3 µM; in assay [2], above 44 µM; in assay [3] it was 11.7 µM; in assay [9] it was 14.1 µM; in [4], 23.7 µM; in [5], 14.7 µM. Also, the TGI in assay [10] was 42.7 µM; in [6] it was 11.5 µM; in assay [8], 6.13 µM.
As to `O=C(Nc1ccc(Oc2cccc(F)c2)c(Cl)c1)c1cnccn1`, the GI50 was 3.03 µM in [1]; 1.3 µM in [2]; 357 nM in assay [3]; 3.28 µM in assay [9]; 1.85 µM in assay [4]; 1000 nM in assay [5]. Further, the GI50 in [6] was 1350 nM; in [7] it was 2150 nM; in [8], 242 nM. Besides, the TGI was above 50 µM in assay [1]; above 50 µM in assay [2]; above 50 µM in assay [3]; above 50 µM in [9]; above 50 µM in assay [4]; 5.15 µM in assay [5]. In addition, the TGI in assay [6], in [7] and in [8] was above 50 µM each time.
For `COc1cc2c(cc1OC)[C@@H](Nc1ccc(F)cc1)C1COC(=O)[C@@H]1C2c1cc(OC)c(O)c(OC)c1` (stereo not given in full), the TGI is 2.51 µM in assay [1]; 0.846 µM in [2]; above 64.5 µM in [3]; 0.21 µM in assay [4]; above 100 µM in [5]; 4.26 µM in [6]. Moreover, the results for the TGI in [7] and in assay [8] were above 60.9 µM and 0.282 µM, respectively.
Consider `CCc1ccc2c(c1)C(=O)c1c-2n(CCCN=[N+]=[N-])c(=O)c2cc(OC)c(OC)cc12`, for which the GI50 is 40.6 µM in assay [1]; above 100 µM in [2]; above 100000 nM in [3]; above 100 µM in assay [9]; above 100 µM in assay [4]; above 100000 nM in assay [5]. In addition, the values for the GI50 in [10], in assay [6] and in [7] were above 100 µM, 57200 nM and above 100000 nM, respectively. In addition, the TGI in assay [1], in [2], in assay [3], in assay [9], in assay [4] and in assay [5] was above 100 µM in each case. Moreover, the TGI in [10], in assay [6] and in [7] was above 100 µM in each case.
